Bounds are passed on as bounds.

The target of one data set is P-gp (MDR1) (Homo sapiens, UniProt P08183). The data set can be described thus: Permeability assay, LLC-PK1-MDR1 cells overexpressing P-gp. Conditions: for Papp B→A at 2 h, 2 µM / efflux ratio at 2 h, 2 µM: human, LLC-PK1.
Data set [1] is described as follows: Permeability assay, LLC-PK1-MOCK cells. Type of data set: in vitro ADME. The settings on record: pig, LLC-PK1, 2 μM; for Papp A→B at 2 h, 2 µM / Papp B→A at 2 h, 2 µM: Mean ± SD, n = 3; for efflux ratio at 2 h, 2 µM: read-out: ER.
The subject of a further data set is NCI-H441 cell model. The data set can be described thus: Bidirectional transport, NCI-H441 air-liquid culture model. It counts as in vitro ADME, human. Here is the method:
(§1) NCI-H441 cells were cultured in RPMI-1640 medium (Gibco, Thermo, CA, USA) supplemented with 10% FBS and PS (100 U/mL) at 37 °C in a humidified 5% CO2 incubator, and the medium was changed every other day. […] Then, 850 μL of complete medium (containing 200 nM dexamethasone) was added to the basolateral chamber. […] Subsequently, an air-interfaced culture (AIC) was initiated by supplying 650 μL of culture medium to the basolateral chamber only. The culture medium was replaced every other day.
(§2) We removed the liquid from the apical and basolateral of the Transwell, rinsed the cells three times with a buffer containing HBSS, 10 mM Hepes, and 0.1% BSA (Buffer A), and then added Buffer A (100 µL for the apical side and 600 µL for the basolateral side) for pre-incubation for 30 min at 37 °C. For the transport studies in the apical to basolateral (A-B) direction, 100 μL of pre-warmed test solution (Buffer A containing 2 µM positive control drugs or peramivir) was added to the apical side, while 600 μL of pre-warmed assay buffer, a buffer containing HBSS, 10 mM Hepes, and 1% BSA (Buffer B), was added to the basolateral compartment.

Experiment in data set [2]: as above
It counts as in vitro ADME, human. Conditions: human, NCI-H441, 2 μM; for Papp A→B at 2 h, 2 µM / Papp B→A at 2 h, 2 µM: Mean ± SD, n = 3. The protocol:
as §1, §2

Data set [3] is described as follows: Bidirectional transport, NCI-H441/dTHP co-culture model. Conditions: human; NCI-H441/dTHP, 2 μM, Mean ± SD, n = 3. It counts as in vitro ADME, human. The protocol:
(§3) THP-1 cells were cultured in RPMI-1640 medium (Gibco, Thermo, CA, USA) supplemented with 10% FBS, PS (100 U/mL), and β-Mer (0.05 mM) at 37 °C in a humidified 5% CO2 incubator, and the medium was changed every other day. THP-1 cells were seeded at 4 × 10^5 cells/mL in six-well plates and induced for 48 h by adding medium containing a final concentration of 100 ng/mL PMA.
(§4) Then, the differentiated cells were seeded at 5 × 10^4 cells/well on the surface of NCI-H441 cells 10 days after air–liquid culture and continued to co-culture for 24 h.
as §2

The subject of data set [4] is NCI-H441/dTHP co-culture model. The description is as above. The settings on record: for ER: NCI-H441/dTHP, 2 μM. Type of data set: in vitro ADME, human. Here is the method: as §3, §4, §2
Data set [5] is described as follows: Bidirectional transport, Calu-3 air-liquid culture model. Conditions: human.
The conditions of data set [6]: administered orally; cited from earlier work.
The next data set has as its system BCRP. The data set can be described thus: Bidirectional transport, NCI-H441 air-liquid culture model. It counts as in vitro ADME, human. Conditions: human, with ko143 5 µM; NCI-H441, topotecan 2 μM with BCRP inhibitor ko143 (5 μM); read-out: ER value, inhibitor group. Here is the method:
as §1, §2

For a further data set, the target named is human MDR1 (P-gp) (Homo sapiens, UniProt P08183). Kind of data set: Permeability assay, LLC-PK1-MDR1 cells overexpressing P-gp. Conditions: LLC-PK1-MDR1, 2 μM, Mean ± SD, n = 3.
The test system of another data set is P-gp. Kind of data set: Bidirectional transport, Calu-3 air-liquid culture model. The settings on record: human, with tariquidar 5 µM.
A further data set deals with Calu-3 cell model. The data set is described as above. The settings on record: Calu-3, about 14 days air–liquid interface.

P-gp (MDR1), sequence (P08183 whole entry): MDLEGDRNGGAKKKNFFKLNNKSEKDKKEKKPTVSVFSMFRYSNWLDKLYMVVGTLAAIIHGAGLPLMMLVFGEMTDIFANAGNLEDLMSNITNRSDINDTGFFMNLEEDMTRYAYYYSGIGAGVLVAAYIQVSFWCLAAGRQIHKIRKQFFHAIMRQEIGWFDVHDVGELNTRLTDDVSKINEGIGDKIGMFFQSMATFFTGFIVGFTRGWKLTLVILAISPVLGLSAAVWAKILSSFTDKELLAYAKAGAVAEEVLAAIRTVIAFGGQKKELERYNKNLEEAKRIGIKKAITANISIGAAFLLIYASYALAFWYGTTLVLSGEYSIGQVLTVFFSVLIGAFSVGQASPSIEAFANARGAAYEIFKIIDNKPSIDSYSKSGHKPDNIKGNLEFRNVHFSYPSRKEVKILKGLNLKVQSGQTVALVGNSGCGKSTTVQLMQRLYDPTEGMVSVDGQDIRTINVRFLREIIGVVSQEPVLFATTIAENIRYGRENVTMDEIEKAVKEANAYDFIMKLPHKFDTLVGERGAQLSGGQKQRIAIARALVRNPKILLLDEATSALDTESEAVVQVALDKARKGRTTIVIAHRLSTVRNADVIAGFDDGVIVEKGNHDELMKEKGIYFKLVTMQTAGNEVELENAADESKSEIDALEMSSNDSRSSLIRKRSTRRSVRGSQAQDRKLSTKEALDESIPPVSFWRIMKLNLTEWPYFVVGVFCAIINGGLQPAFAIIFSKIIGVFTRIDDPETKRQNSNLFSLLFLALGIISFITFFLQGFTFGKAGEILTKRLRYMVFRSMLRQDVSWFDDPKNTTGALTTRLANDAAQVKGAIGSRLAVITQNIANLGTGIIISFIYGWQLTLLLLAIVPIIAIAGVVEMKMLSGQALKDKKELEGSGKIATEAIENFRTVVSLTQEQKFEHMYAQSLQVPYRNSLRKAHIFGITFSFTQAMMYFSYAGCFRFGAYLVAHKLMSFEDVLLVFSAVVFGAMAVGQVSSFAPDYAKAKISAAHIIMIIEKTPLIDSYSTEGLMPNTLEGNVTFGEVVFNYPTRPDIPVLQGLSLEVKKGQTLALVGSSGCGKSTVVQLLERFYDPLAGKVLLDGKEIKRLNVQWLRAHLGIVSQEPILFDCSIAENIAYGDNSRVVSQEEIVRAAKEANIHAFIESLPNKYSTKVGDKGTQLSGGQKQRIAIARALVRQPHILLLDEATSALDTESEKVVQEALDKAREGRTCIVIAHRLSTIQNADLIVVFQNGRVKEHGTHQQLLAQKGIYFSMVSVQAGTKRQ
human MDR1 (P-gp), sequence (P08183 whole entry): as above
Procedure for P-gp (MDR1): (§5) When the cell transport system was mature in culture, experiments were performed. […] When assessing permeability in basolateral to apical (B-A) direction, 100 μL of pre-warmed Buffer B and 600 μL of pre-warmed test solutions were added to the apical and basolateral compartments, respectively. The Transwells® were placed in an incubator at 37 °C and 5% CO2 for a duration of 2 h. At the end of the incubation period, the samples in the apical and basolateral sides were collected separately and were briefly kept at a temperature of −40 °C for LC-MS/MS analysis. […] The cells were transferred to Transwell® plates (Corning, NY, USA) at a density of 2 × 10^4 cells/well with 200 μL of cell suspension per well, while 850 μL of complete medium was added to the basolateral chamber. […] The samples were collected separately and were briefly kept at a temperature of −40 °C for LC-MS/MS analysis.
Procedure for human MDR1 (P-gp): as §5

The term Papp A→B denotes the apparent permeability from the apical to the basolateral side of a cell layer. High values mean ready permeation, low ones poor permeation. A word on the Papp B→A: it is the apparent permeability from the basolateral to the apical side of a cell layer. On to `COCCc1ccc(OCC(O)CNC(C)C)cc1` (stereo not drawn) [Metoprolol], for which the Papp A→B at 2 h, 2 µM on P-gp (MDR1) amounted to 20.4 ± 1.24 ×10⁻⁶ cm/s; in [1] it was 28.5 ± 2.17 ×10⁻⁶ cm/s; in [2], 25.6 ± 5.45 ×10⁻⁶ cm/s; in [3] it was 27.9 ± 7.99 ×10⁻⁶ cm/s; in data set [5] it was 29.8 ± 2.28 ×10⁻⁶ cm/s. For the same compound, the Papp B→A at 2 h, 2 µM stood at 23.1 ± 1.94 ×10⁻⁶ cm/s at P-gp (MDR1); 25.6 ± 3.71 ×10⁻⁶ cm/s in data set [1]; 23.4 ± 2.96 ×10⁻⁶ cm/s in [2]; 24.36 ± 0.22 ×10⁻⁶ cm/s in data set [3]; 21.9 ± 3.73 ×10⁻⁶ cm/s in [5]. Further, the efflux ratio at 2 h, 2 µM amounted to 1.13 at P-gp (MDR1), 0.9 in data set [1] and 29.8 ± 2.28 in data set [5]. Moreover, the ER with NCI-H441 cell model (NCI-H441, 2 μM) amounted to 0.91; in data set [4], 0.90.
Regarding `CC(=O)N[C@H]1[C@H]([C@H](O)[C@H](O)CO)OC(C(=O)O)=C[C@@H]1N=C(N)N` [zanamivir], the absolute bioavailability result in data set [6] was “approximately 2%”.
Regarding `CC[C@@]1(O)C(=O)OCc2c1cc1n(c2=O)Cc2cc3c(CN(C)C)c(O)ccc3nc2-1` [Topotecan], the figures for the efflux ratio at 2 h, 2 µM (with BCRP; in [2] (read-out: ER)) were approximately 1 and 2.25, respectively. Further, the Papp A→B at 2 h, 2 µM came to 1.54 ± 0.12 ×10⁻⁶ cm/s in data set [2] and 2.88 ± 0.55 ×10⁻⁶ cm/s in data set [3]. Further, the figures for the Papp B→A at 2 h, 2 µM in [2] and in data set [3] were 3.47 ± 0.26 ×10⁻⁶ cm/s and 6.18 ± 1.63 ×10⁻⁶ cm/s, respectively. In data set [4], this compound gave an ER of 2.15.
Regarding `C[C@H]1O[C@@H](O[C@H]2[C@@H](O)C[C@H](O[C@H]3[C@@H](O)C[C@H](O[C@H]4CC[C@@]5(C)[C@H](CC[C@@H]6[C@@H]5C[C@@H](O)[C@]5(C)[C@@H](C7=CC(=O)OC7)CC[C@]65O)C4)O[C@@H]3C)O[C@@H]2C)C[C@H](O)[C@@H]1O` [Digoxin], the Papp B→A at 2 h, 2 µM on P-gp (MDR1) was 9.76 ± 0.73 ×10⁻⁶ cm/s; in data set [1], 2.22 ± 0.36 ×10⁻⁶ cm/s; in data set [5], 25.1 ± 7.18 ×10⁻⁶ cm/s. Further, the efflux ratio at 2 h, 2 µM on P-gp (MDR1) was 13.1; in data set [1], 1.35; in the data set on P-gp, approximately 1. For the same compound, the “Papp A-B” value at human MDR1 (P-gp) is recorded as 0.74 ± 0.15 ×10−6 cm/s. Besides, the Papp A→B at 2 h, 2 µM in [1] was found to be 1.64 ± 0.27 ×10⁻⁶ cm/s; in data set [5], 0.66 ± 0.02 ×10⁻⁶ cm/s.
Take `NNC(=O)NN1C(=O)c2cc(S(=O)(=O)[O-])cc3c(N)c(S(=O)(=O)[O-])cc(c23)C1=O.[K+].[K+]` [Lucifer yellow CH dipotassium salt]: the “permeability value (barrier integrity)” value in the data set on NCI-H441 cell model (NCI-H441, about 7 days air–liquid interface) was less than 2 ×10⁻⁶ cm/s; in [4] (NCI-H441/dTHP co-culture 24 h) it was less than 2 ×10⁻⁶ cm/s; with Calu-3 cell model, less than 2 ×10⁻⁶ cm/s.
`CC(C)NCC(O)COc1ccc(CC(N)=O)cc1` (stereo not drawn) [Atenolol]: in [4], the ER is listed as 0.88.

These data come from paper PMC11858854, “In Vitro and In Vivo Assessment of Pharmacokinetic Profile of Peramivir in the Context of Inhalation Therapy” (Pharmaceuticals, 2025).
